Experimental data published in PubChem BioAssay (NCI).
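Exposure lasted 48 hours, with cells grown in 96-well plates and compounds tested at five concentrations. TGI denotes the concentration required for complete inhibition of growth.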

Experiments:
Assay in all cases: growth of human tumour cells (NCI), 48 h
UACC-62 melanoma = tested on: UACC-62 melanoma
HT29 colon = tested on: HT29 colon
UACC-257 melanoma = tested on: UACC-257 melanoma
SR leukemia = tested on: SR leukemia
HS 578T breast = tested on: HS 578T breast
HOP-62 NSCLC = tested on: HOP-62 NSCLC
TK-10 renal = tested on: TK-10 renal
IGROV1 ovarian = tested on: IGROV1 ovarian
HCT-15 colon = tested on: HCT-15 colon
SK-MEL-2 melanoma = tested on: SK-MEL-2 melanoma
786-0 renal = tested on: 786-0 renal
OVCAR-5 ovarian = tested on: OVCAR-5 ovarian
HOP-92 NSCLC = tested on: HOP-92 NSCLC
MOLT-4 leukemia = tested on: MOLT-4 leukemia
MCF7 breast = tested on: MCF7 breast
OVCAR-8 ovarian = tested on: OVCAR-8 ovarian
MALME-3M melanoma = tested on: MALME-3M melanoma
NCI-H226 lung = tested on: NCI-H226 lung
SNB-75 CNS = tested on: SNB-75 CNS
HCC-2998 colon = tested on: HCC-2998 colon
ACHN renal = tested on: ACHN renal
SNB-19 CNS = tested on: SNB-19 CNS
UO-31 renal = tested on: UO-31 renal
NCI-H23 lung = tested on: NCI-H23 lung
KM12 colon = tested on: KM12 colon
RXF 393 renal = tested on: RXF 393 renal
A498 renal = tested on: A498 renal
BT-549 breast = tested on: BT-549 breast
MDA-N = tested on: MDA-N
SK-MEL-5 melanoma = tested on: SK-MEL-5 melanoma
COLO 205 colon = tested on: COLO 205 colon
HCT-116 colon = tested on: HCT-116 colon
NCI-H460 lung = tested on: NCI-H460 lung
CCRF-CEM leukemia = tested on: CCRF-CEM leukemia
RPMI-8226 leukemia = tested on: RPMI-8226 leukemia
MDA-MB-231 breast = tested on: MDA-MB-231 breast
A549 NSCLC = tested on: A549 NSCLC
SW-620 colon = tested on: SW-620 colon
SN12C renal = tested on: SN12C renal
PC-3 prostate = tested on: PC-3 prostate
EKVX NSCLC = tested on: EKVX NSCLC
U251 CNS = tested on: U251 CNS
HL-60(TB) leukemia = tested on: HL-60(TB) leukemia
M14 melanoma = tested on: M14 melanoma
SK-MEL-28 melanoma = tested on: SK-MEL-28 melanoma
K-562 leukemia = tested on: K-562 leukemia
OVCAR-4 ovarian = tested on: OVCAR-4 ovarian
OVCAR-3 ovarian = tested on: OVCAR-3 ovarian
NCI/ADR-RES ovarian = tested on: NCI/ADR-RES ovarian
SK-OV-3 ovarian = tested on: SK-OV-3 ovarian
SF-295 CNS = tested on: SF-295 CNS
DU-145 prostate = tested on: DU-145 prostate
SF-539 CNS = tested on: SF-539 CNS
CAKI-1 renal = tested on: CAKI-1 renal
NCI-H522 lung = tested on: NCI-H522 lung
LOX IMVI melanoma = tested on: LOX IMVI melanoma
T-47D breast = tested on: T-47D breast
SF-268 CNS = tested on: SF-268 CNS
MDA-MB-435 = tested on: MDA-MB-435

CCOC(=O)Cn1c(=O)c2nc(SC)sc2n(-c2ccccc2)c1=O
TGI (UACC-62 melanoma): > 100 µM | TGI (HT29 colon): > 100 µM | TGI (UACC-257 melanoma): > 100 µM | TGI (SR leukemia): > 100 µM | TGI (HS 578T breast): > 100 µM | TGI (HOP-62 NSCLC): > 100 µM | TGI (TK-10 renal): > 100 µM | TGI (IGROV1 ovarian): > 100 µM | TGI (HCT-15 colon): > 100 µM | TGI (SK-MEL-2 melanoma): > 100 µM | TGI (786-0 renal): > 100 µM | TGI (OVCAR-5 ovarian): > 100 µM | TGI (HOP-92 NSCLC): > 100 µM | TGI (MOLT-4 leukemia): > 100 µM | TGI (MCF7 breast): > 100 µM | TGI (OVCAR-8 ovarian): > 100 µM | TGI (MALME-3M melanoma): > 100 µM | TGI (NCI-H226 lung): > 100 µM | TGI (SNB-75 CNS): > 100 µM | TGI (HCC-2998 colon): > 100 µM | TGI (ACHN renal): > 100 µM | TGI (SNB-19 CNS): > 100 µM | TGI (UO-31 renal): > 100 µM | TGI (NCI-H23 lung): > 100 µM | TGI (KM12 colon): > 100 µM | TGI (RXF 393 renal): > 100 µM | TGI (A498 renal): > 100 µM | TGI (BT-549 breast): > 100 µM | TGI (MDA-N): > 100 µM | TGI (SK-MEL-5 melanoma): > 100 µM | TGI (COLO 205 colon): > 100 µM | TGI (HCT-116 colon): > 100 µM | TGI (NCI-H460 lung): > 100 µM | TGI (CCRF-CEM leukemia): > 100 µM | TGI (RPMI-8226 leukemia): > 100 µM | TGI (MDA-MB-231 breast): > 100 µM | TGI (A549 NSCLC): > 100 µM | TGI (SW-620 colon): > 100 µM | TGI (SN12C renal): > 100 µM | TGI (PC-3 prostate): > 100 µM | TGI (EKVX NSCLC): > 100 µM | TGI (U251 CNS): > 100 µM | TGI (HL-60(TB) leukemia): > 100 µM | TGI (M14 melanoma): > 100 µM | TGI (SK-MEL-28 melanoma): > 100 µM | TGI (K-562 leukemia): > 100 µM

O=C(Nc1nccs1)c1c(O)nc2sccn2c1=O
TGI (UACC-62 melanoma): > 10 µM | TGI (HT29 colon): > 10 µM | TGI (OVCAR-4 ovarian): > 10 µM | TGI (OVCAR-3 ovarian): > 10 µM | TGI (NCI/ADR-RES ovarian): > 10 µM | TGI (SR leukemia): > 10 µM | TGI (HS 578T breast): > 10 µM | TGI (HOP-62 NSCLC): > 10 µM | TGI (TK-10 renal): > 10 µM | TGI (SK-OV-3 ovarian): > 10 µM | TGI (IGROV1 ovarian): > 10 µM | TGI (HCT-15 colon): > 10 µM | TGI (SF-295 CNS): > 10 µM | TGI (SK-MEL-2 melanoma): > 10 µM | TGI (OVCAR-5 ovarian): > 10 µM | TGI (MOLT-4 leukemia): > 10 µM | TGI (MCF7 breast): > 10 µM | TGI (OVCAR-8 ovarian): > 10 µM | TGI (DU-145 prostate): > 10 µM | TGI (MALME-3M melanoma): > 10 µM | TGI (NCI-H226 lung): > 10 µM | TGI (SF-539 CNS): > 10 µM | TGI (CAKI-1 renal): > 10 µM | TGI (SNB-75 CNS): > 10 µM | TGI (HCC-2998 colon): > 10 µM | TGI (ACHN renal): > 10 µM | TGI (SNB-19 CNS): > 10 µM | TGI (UO-31 renal): > 10 µM | TGI (NCI-H23 lung): > 10 µM | TGI (NCI-H522 lung): > 10 µM | TGI (KM12 colon): > 10 µM | TGI (RXF 393 renal): > 10 µM | TGI (LOX IMVI melanoma): > 10 µM | TGI (T-47D breast): > 10 µM | TGI (A498 renal): > 10 µM | TGI (MDA-N): > 10 µM | TGI (SK-MEL-5 melanoma): > 10 µM | TGI (COLO 205 colon): > 10 µM | TGI (HCT-116 colon): > 10 µM | TGI (SF-268 CNS): > 10 µM | TGI (NCI-H460 lung): > 10 µM | TGI (CCRF-CEM leukemia): > 10 µM | TGI (RPMI-8226 leukemia): > 10 µM | TGI (MDA-MB-435): > 10 µM | TGI (MDA-MB-231 breast): > 10 µM | TGI (A549 NSCLC): > 10 µM | TGI (SW-620 colon): > 10 µM | TGI (SN12C renal): > 10 µM | TGI (PC-3 prostate): > 10 µM | TGI (EKVX NSCLC): > 10 µM | TGI (U251 CNS): > 10 µM | TGI (HL-60(TB) leukemia): > 10 µM | TGI (M14 melanoma): > 10 µM | TGI (SK-MEL-28 melanoma): > 10 µM
